# Source: ChEMBL document CHEMBL1152667, “Synthesis and radiopharmacological investigation of 3-[4'-[(18)F]fluorobenzylidene]indolin-2-one as possible tyrosine kinase inhibitor” (Bioorg Med Chem, 2009)
# Experiments:
# Liver = assay: Biodistribution in Wistar rat liver at 1.7 MBq, iv administered as single dose measured after 5 mins post-injection by gamma counting; type: ADME, organism-based; conditions: in vivo
# Femur [1] = assay: Biodistribution in Wistar rat femur at 1.7 MBq, iv administered as single dose measured after 5 mins post-injection by gamma counting; type: ADME, organism-based; conditions: in vivo
# Testes [2] = assay: Biodistribution in Wistar rat testes at 1.7 MBq, iv administered as single dose measured after 5 mins post-injection by gamma counting; type: ADME, organism-based, Testis; conditions: in vivo
# Brain [3] = assay: Biodistribution in Wistar rat brain at 1.7 MBq, iv administered as single dose measured after 10 mins post-injection by gamma counting; type: ADME, organism-based; conditions: in vivo
# Spleen [4] = assay: Biodistribution in Wistar rat spleen at 1.7 MBq, iv administered as single dose measured after 10 mins post-injection by gamma counting; type: ADME, organism-based; conditions: in vivo
# Harderian gland = assay: Biodistribution in Wistar rat harderian gland at 1.7 MBq, iv administered as single dose measured after 10 mins post-injection by gamma counting; type: ADME, organism-based; conditions: in vivo
# Brain [5] = assay: Biodistribution in Wistar rat brain at 1.7 MBq, iv administered as single dose measured after 30 mins post-injection by gamma counting; type: ADME, organism-based; conditions: in vivo, 0.5 h
# Adrenal gland [6] = assay: Biodistribution in Wistar rat adrenal gland at 1.7 MBq, iv administered as single dose measured after 30 mins post-injection by gamma counting; type: ADME, organism-based; conditions: in vivo, 0.5 h
# [7] = Biodistribution in Wistar rat thyroid gland at 1.7 MBq, iv administered as single dose measured after 30 mins post-injection by gamma counting; type: ADME, organism-based; conditions: in vivo, 0.5 h
# [8] = Ratio of drug level in brown adipose tissue to blood in Wistar rat at 1.7 MBq, iv administered as single dose measured after 60 mins post-injection; type: ADME, organism-based
# [9] = Ratio of drug level in brain to blood in Wistar rat at 1.7 MBq, iv administered as single dose measured after 60 mins post-injection; type: ADME, organism-based
# [10] = Metabolic stability in Wistar rat blood assessed as compound remaining at 30 MBq, iv after 3 mins by radio-HPLC analysis; type: ADME, organism-based; conditions: read-out: Stability
# [11] = Phase 1 elimination half life in Wistar rat at 30 MBq, iv by radio-HPLC analysis; type: ADME, organism-based; conditions: in vivo, read-out: beta t1/2 (converted)
# [12] = Phase 2 elimination half life in Wistar rat at 30 MBq, iv by radio-HPLC analysis; type: ADME, organism-based; conditions: in vivo, read-out: beta t1/2 (converted)
# Brain [13] = assay: Biodistribution in Wistar rat brain at 1.7 MBq, iv administered as single dose measured after 60 mins post-injection by gamma counting; type: ADME, organism-based; conditions: in vivo, 1 h
# Heart [14] = assay: Biodistribution in Wistar rat heart at 1.7 MBq, iv administered as single dose measured after 60 mins post-injection by gamma counting; type: ADME, organism-based; conditions: in vivo, 1 h
# [15] = Biodistribution in Wistar rat stomach at 1.7 MBq, iv administered as single dose measured after 60 mins post-injection by gamma counting; type: ADME, organism-based; conditions: in vivo, 1 h
# [16] = Ratio of drug level in adrenal gland to blood in Wistar rat at 1.7 MBq, iv administered as single dose measured after 5 mins post-injection; type: ADME, organism-based
# [17] = Ratio of drug level in brown adipose tissue to blood in Wistar rat at 1.7 MBq, iv administered as single dose measured after 5 mins post-injection; type: ADME, organism-based
# [18] = Ratio of drug level in brain to blood in Wistar rat at 1.7 MBq, iv administered as single dose measured after 5 mins post-injection; type: ADME, organism-based
# [19] = Ratio of drug level in pancreas to blood in Wistar rat at 1.7 MBq, iv administered as single dose measured after 5 mins post-injection; type: ADME, organism-based
# Blood [20] = assay: Biodistribution in Wistar rat blood assessed as standard uptake value at 1.7 MBq, iv administered as single dose measured after 30 mins post-injection by gamma counting; type: ADME, organism-based; conditions: in vivo, 0.5 h
# Adrenal gland [21] = assay: Biodistribution in Wistar rat adrenal gland assessed as standard uptake value at 1.7 MBq, iv administered as single dose measured after 30 mins post-injection by gamma counting; type: ADME, organism-based; conditions: in vivo, 0.5 h
# Brain [22] = assay: Biodistribution in Wistar rat brain assessed as standard uptake value at 1.7 MBq, iv administered as single dose measured after 1 min post-injection by gamma counting; type: ADME, organism-based; conditions: in vivo
# [23] = Biodistribution in Wistar rat thyroid gland assessed as standard uptake value at 1.7 MBq, iv administered as single dose measured after 1 min post-injection by gamma counting; type: ADME, organism-based; conditions: in vivo
# Brain [24] = assay: Biodistribution in Wistar rat brain assessed as standard uptake value at 1.7 MBq, iv administered as single dose measured after 5 mins post-injection by gamma counting; type: ADME, organism-based; conditions: in vivo
# [25] = Biodistribution in Wistar rat adipose tissue assessed as standard uptake value at 1.7 MBq, iv administered as single dose measured after 30 mins post-injection by gamma counting; type: ADME, organism-based; conditions: in vivo, 0.5 h
# [26] = Biodistribution in Wistar rat thyroid gland assessed as standard uptake value at 1.7 MBq, iv administered as single dose measured after 30 mins post-injection by gamma counting; type: ADME, organism-based; conditions: in vivo, 0.5 h
# Blood [27] = assay: Biodistribution in Wistar rat blood assessed as standard uptake value at 1.7 MBq, iv administered as single dose measured after 60 mins post-injection by gamma counting; type: ADME, organism-based; conditions: in vivo, 1 h
# Heart [28] = assay: Biodistribution in Wistar rat heart assessed as standard uptake value at 1.7 MBq, iv administered as single dose measured after 60 mins post-injection by gamma counting; type: ADME, organism-based; conditions: in vivo, 1 h
# Adrenal gland [29] = assay: Biodistribution in Wistar rat adrenal gland assessed as standard uptake value at 1.7 MBq, iv administered as single dose measured after 5 mins post-injection by gamma counting; type: ADME, organism-based; conditions: in vivo
# Femur [30] = assay: Biodistribution in Wistar rat femur assessed as standard uptake value at 1.7 MBq, iv administered as single dose measured after 5 mins post-injection by gamma counting; type: ADME, organism-based; conditions: in vivo
# Testes [31] = assay: Biodistribution in Wistar rat testes assessed as standard uptake value at 1.7 MBq, iv administered as single dose measured after 60 mins post-injection by gamma counting; type: ADME, organism-based, Testis; conditions: in vivo, 1 h
# Kidney = assay: Biodistribution in Wistar rat kidney at 1.7 MBq, iv administered as single dose measured after 1 min post-injection by gamma counting; type: ADME, organism-based; conditions: in vivo
# Thymus = assay: Biodistribution in Wistar rat thymus at 1.7 MBq, iv administered as single dose measured after 1 min post-injection by gamma counting; type: ADME, organism-based; conditions: in vivo
# Spleen [32] = assay: Biodistribution in Wistar rat spleen assessed as standard uptake value at 1.7 MBq, iv administered as single dose measured after 10 mins post-injection by gamma counting; type: ADME, organism-based; conditions: in vivo
# Muscle tissue = assay: Biodistribution in Wistar rat muscle assessed as standard uptake value at 1.7 MBq, iv administered as single dose measured after 10 mins post-injection by gamma counting; type: ADME, organism-based; conditions: in vivo
# Heart [33] = assay: Biodistribution in Wistar rat heart assessed as standard uptake value at 1.7 MBq, iv administered as single dose measured after 10 mins post-injection by gamma counting; type: ADME, organism-based; conditions: in vivo
# Lung [34] = assay: Biodistribution in Wistar rat lung assessed as standard uptake value at 1.7 MBq, iv administered as single dose measured after 10 mins post-injection by gamma counting; type: ADME, organism-based; conditions: in vivo
# Brain [35] = assay: Biodistribution in Wistar rat brain at 1.7 MBq, iv administered as single dose measured after 5 mins post-injection by gamma counting; type: ADME, organism-based; conditions: in vivo
# Spleen [36] = assay: Biodistribution in Wistar rat spleen at 1.7 MBq, iv administered as single dose measured after 5 mins post-injection by gamma counting; type: ADME, organism-based; conditions: in vivo
# Adrenal gland [37] = assay: Biodistribution in Wistar rat adrenal gland at 1.7 MBq, iv administered as single dose measured after 5 mins post-injection by gamma counting; type: ADME, organism-based; conditions: in vivo
# Lung [38] = assay: Biodistribution in Wistar rat lung at 1.7 MBq, iv administered as single dose measured after 5 mins post-injection by gamma counting; type: ADME, organism-based; conditions: in vivo
smiles,measurement,setting,value
O=C1Nc2ccccc2/C1=C/c1ccc([18F])cc1,Drug uptake,Liver,18.4 %ID
same,Drug uptake,Femur [1],0.35 %ID
same,Drug uptake,Testes [2],0.38 %ID
same,Drug uptake,Brain [3],1.09 %ID
same,Drug uptake,Spleen [4],0.14 %ID
same,Drug uptake,Harderian gland,0.25 %ID
same,Drug uptake,Brain [5],0.44 %ID
same,Drug uptake,Adrenal gland [6],0.04 %ID
same,Drug uptake,[7],0.03 %ID
same,Kp at 1 h,[8],4.3
same,Kp at 1 h,[9],3.2
same,remaining at 0.05 h,[10],54%
same,half-life,[11],0.133 min
same,half-life,[12],4.45 min
same,Drug uptake,Brain [13],0.2 %ID
same,Drug uptake,Heart [14],0.08 %ID
same,Drug uptake,[15],0.6 %ID
same,Kp at 5 min,[16],10.2
same,Kp at 5 min,[17],4.1
same,Kp at 5 min,[18],3
same,Kp at 5 min,[19],3
same,SUV,Blood [20],0.27%
same,SUV,Adrenal gland [21],1.39%
same,SUV,Brain [22],2.84%
same,SUV,[23],1.55%
same,SUV,Brain [24],1.67%
same,SUV,[25],1.17%
same,SUV,[26],0.4%
same,SUV,Blood [27],0.15%
same,SUV,Heart [28],0.2%
same,SUV,Adrenal gland [29],5.71%
same,SUV,Femur [30],0.64%
same,SUV,Testes [31],0.19%
same,Drug uptake,Kidney,3.13 %ID
same,Drug uptake,Thymus,0.5 %ID
same,SUV,Spleen [32],0.52%
same,SUV,Muscle tissue,0.69%
same,SUV,Heart [33],0.88%
same,SUV,Lung [34],0.85%
same,Drug uptake,Brain [35],1.87 %ID
same,Drug uptake,Spleen [36],0.23 %ID
same,Drug uptake,Adrenal gland [37],0.17 %ID
same,Drug uptake,Lung [38],1.02 %ID
